Laboratory results from PubChem BioAssay AID1259407 (Chemical Carcinogenesis Research Information System (CCRIS), 2018).
Active and inactive are the calls of the source. No rule for the calls is given here.

Test system: CCRIS mutagenicity, Ames/micronucleus/aberration tests
Experiment: CCRIS mutagenicity studies
[1] = Test System: AMES SALMONELLA TYPHIMURIUM, Strain/Indicator: TA97, Metabolic Activation: NONE, Method: PREINCUBATION
[2] = Test System: AMES SALMONELLA TYPHIMURIUM, Strain/Indicator: TA98, Metabolic Activation: NONE, Method: PREINCUBATION
[3] = Test System: AMES SALMONELLA TYPHIMURIUM, Strain/Indicator: TA100, Metabolic Activation: NONE, Method: PREINCUBATION
[4] = Test System: AMES SALMONELLA TYPHIMURIUM, Strain/Indicator: TA1535, Metabolic Activation: NONE, Method: PREINCUBATION

Structure (SMILES): O.O.O.O.O.O.O=[N+]([O-])[O-].O=[N+]([O-])[O-].O=[N+]([O-])[O-].[La+3]
- mutagenic call (Test System: AMES SALMONELLA TYPHIMURIUM, Strain/Indicator: TA97, Metabolic Activation: HAMSTER, LIVER, S-9, AROCLOR 1254 (10 OR 30%), Method: PREINCUBATION): inactive; negative
- mutagenic call [1]: inactive; negative
- mutagenic call (Test System: AMES SALMONELLA TYPHIMURIUM, Strain/Indicator: TA97, Metabolic Activation: RAT, LIVER, S-9, AROCLOR 1254 (10%), Method: PREINCUBATION): inactive; negative
- mutagenic call (Test System: AMES SALMONELLA TYPHIMURIUM, Strain/Indicator: TA97, Metabolic Activation: RAT, LIVER, S-9, AROCLOR 1254 (30%), Method: PREINCUBATION): inactive; negative
- mutagenic call (Test System: AMES SALMONELLA TYPHIMURIUM, Strain/Indicator: TA98, Metabolic Activation: HAMSTER, LIVER, S-9, AROCLOR 1254 (10 OR 30%), Method: PREINCUBATION): inactive; negative
- mutagenic call [2]: inactive; negative
- mutagenic call (Test System: AMES SALMONELLA TYPHIMURIUM, Strain/Indicator: TA98, Metabolic Activation: RAT, LIVER, S-9, AROCLOR 1254 (10%), Method: PREINCUBATION): inactive; negative
- mutagenic call (Test System: AMES SALMONELLA TYPHIMURIUM, Strain/Indicator: TA98, Metabolic Activation: RAT, LIVER, S-9, AROCLOR 1254 (30%), Method: PREINCUBATION): inactive; negative
- mutagenic call (Test System: AMES SALMONELLA TYPHIMURIUM, Strain/Indicator: TA100, Metabolic Activation: HAMSTER, LIVER, S-9, AROCLOR 1254 (10%), Method: PREINCUBATION): inactive; negative
- mutagenic call (Test System: AMES SALMONELLA TYPHIMURIUM, Strain/Indicator: TA100, Metabolic Activation: HAMSTER, LIVER, S-9, AROCLOR 1254 (30%), Method: PREINCUBATION): inactive; negative
- mutagenic call [3]: inactive; negative
- mutagenic call (Test System: AMES SALMONELLA TYPHIMURIUM, Strain/Indicator: TA100, Metabolic Activation: RAT, LIVER, S-9, AROCLOR 1254 (10%), Method: PREINCUBATION): inactive; negative
- mutagenic call (Test System: AMES SALMONELLA TYPHIMURIUM, Strain/Indicator: TA100, Metabolic Activation: RAT, LIVER, S-9, AROCLOR 1254 (30%), Method: PREINCUBATION): inactive; negative
- mutagenic call (Test System: AMES SALMONELLA TYPHIMURIUM, Strain/Indicator: TA1535, Metabolic Activation: HAMSTER, LIVER, S-9, AROCLOR 1254 (10%), Method: PREINCUBATION): inactive; negative
- mutagenic call (Test System: AMES SALMONELLA TYPHIMURIUM, Strain/Indicator: TA1535, Metabolic Activation: HAMSTER, LIVER, S-9, AROCLOR 1254 (30%), Method: PREINCUBATION): inactive; negative
- mutagenic call [4]: inactive; negative
- mutagenic call (Test System: AMES SALMONELLA TYPHIMURIUM, Strain/Indicator: TA1535, Metabolic Activation: RAT, LIVER, S-9, AROCLOR 1254 (10%), Method: PREINCUBATION): inactive; negative
- mutagenic call (Test System: AMES SALMONELLA TYPHIMURIUM, Strain/Indicator: TA1535, Metabolic Activation: RAT, LIVER, S-9, AROCLOR 1254 (30%), Method: PREINCUBATION): inactive; negative
- mutagenic call (Test System: UDS HUMAN LYMPHOCYTES, Strain/Indicator: THYMIDINE INCORPORATION, Metabolic Activation: NONE, Method: LIQUID SCINTILLATION COUNTING): active; positive

Structure (SMILES): CCCC(=O)O
- mutagenic call [1]: inactive; negative
- mutagenic call (Test System: AMES SALMONELLA TYPHIMURIUM, Strain/Indicator: TA97, Metabolic Activation: RAT, LIVER, S-9, AROCLOR 1254, Method: PREINCUBATION): inactive; negative
- mutagenic call [2]: inactive; negative
- mutagenic call (Test System: AMES SALMONELLA TYPHIMURIUM, Strain/Indicator: TA98, Metabolic Activation: RAT LIVER S-9, PHENOBARBITAL AND BETA-NAPHTHOFLAVONE, Method: PREINCUBATION): inactive; negative
- mutagenic call [3]: inactive; negative
- mutagenic call (Test System: AMES SALMONELLA TYPHIMURIUM, Strain/Indicator: TA100, Metabolic Activation: RAT LIVER S-9, PHENOBARBITAL AND BETA-NAPHTHOFLAVONE, Method: PREINCUBATION): inactive; negative
- mutagenic call (Test System: AMES SALMONELLA TYPHIMURIUM, Strain/Indicator: TA102, Metabolic Activation: NONE, Method: PREINCUBATION): inactive; negative
- mutagenic call (Test System: AMES SALMONELLA TYPHIMURIUM, Strain/Indicator: TA102, Metabolic Activation: RAT LIVER S-9, PHENOBARBITAL AND BETA-NAPHTHOFLAVONE, Method: PREINCUBATION): inactive; negative
- mutagenic call (Test System: AMES SALMONELLA TYPHIMURIUM, Strain/Indicator: TA102, Metabolic Activation: RAT, LIVER, S-9, AROCLOR 1254, Method: PREINCUBATION): inactive; negative
- mutagenic call (Test System: AMES SALMONELLA TYPHIMURIUM, Strain/Indicator: TA104, Metabolic Activation: NONE, Method: PREINCUBATION): inactive; negative
- mutagenic call (Test System: AMES SALMONELLA TYPHIMURIUM, Strain/Indicator: TA104, Metabolic Activation: RAT LIVER S-9, PHENOBARBITAL AND BETA-NAPHTHOFLAVONE, Method: PREINCUBATION): inactive; negative
- mutagenic call [4]: inactive; negative
- mutagenic call (Test System: AMES SALMONELLA TYPHIMURIUM, Strain/Indicator: TA1535, Metabolic Activation: RAT LIVER S-9, PHENOBARBITAL AND BETA-NAPHTHOFLAVONE, Method: PREINCUBATION): inactive; negative
- mutagenic call (Test System: AMES SALMONELLA TYPHIMURIUM, Strain/Indicator: TA1537, Metabolic Activation: NONE, Method: PREINCUBATION): inactive; negative
- mutagenic call (Test System: AMES SALMONELLA TYPHIMURIUM, Strain/Indicator: TA1537, Metabolic Activation: RAT LIVER S-9, PHENOBARBITAL AND BETA-NAPHTHOFLAVONE, Method: PREINCUBATION): inactive; negative
- mutagenic call (Test System: E.COLI, Strain/Indicator: WP2UVRA/PKM101, Metabolic Activation: NONE, Method: PREINCUBATION): inactive; negative
- mutagenic call (Test System: E.COLI, Strain/Indicator: WP2UVRA/PKM101, Metabolic Activation: RAT LIVER S-9, PHENOBARBITAL AND BETA-NAPHTHOFLAVONE, Method: PREINCUBATION): inactive; negative
- mutagenic call (Test System: E.COLI, Strain/Indicator: WP2UVRA, Metabolic Activation: NONE, Method: PREINCUBATION): inactive; negative
- mutagenic call (Test System: E.COLI, Strain/Indicator: WP2UVRA, Metabolic Activation: RAT LIVER S-9, PHENOBARBITAL AND BETA-NAPHTHOFLAVONE, Method: PREINCUBATION): inactive; negative

Structure (SMILES): Cc1nc2ccc3ccc4ccc(O)cc4c3c2o1
- mutagenic call (Test System: AMES SALMONELLA TYPHIMURIUM, Strain/Indicator: TA98, Metabolic Activation: RAT, LIVER, S-9, AROCLOR 1254, Method: STANDARD PLATE): active; positive
- mutagenic call (Test System: AMES SALMONELLA TYPHIMURIUM, Strain/Indicator: TA98, Metabolic Activation: RAT, LIVER, S-9, AROCLOR, Method: STANDARD PLATE): active; positive

Structure (SMILES): FC(Cl)C(F)(F)F (configuration not stated)
- mutagenic call (Test System: AMES SALMONELLA TYPHIMURIUM, Strain/Indicator: TA97, Metabolic Activation: NONE, Method: VAPOR CHAMBER): inactive; negative
- mutagenic call (Test System: AMES SALMONELLA TYPHIMURIUM, Strain/Indicator: TA97, Metabolic Activation: RAT LIVER S-9, Method: VAPOR CHAMBER): inactive; negative
- mutagenic call (Test System: AMES SALMONELLA TYPHIMURIUM, Strain/Indicator: TA98, Metabolic Activation: NONE, Method: VAPOR CHAMBER): inactive; negative
- mutagenic call (Test System: AMES SALMONELLA TYPHIMURIUM, Strain/Indicator: TA98, Metabolic Activation: RAT LIVER S-9, Method: VAPOR CHAMBER): inactive; negative
- mutagenic call (Test System: AMES SALMONELLA TYPHIMURIUM, Strain/Indicator: TA100, Metabolic Activation: NONE, Method: VAPOR CHAMBER): inactive; negative
- mutagenic call (Test System: AMES SALMONELLA TYPHIMURIUM, Strain/Indicator: TA100, Metabolic Activation: RAT LIVER S-9, Method: VAPOR CHAMBER): inactive; negative
- mutagenic call (Test System: AMES SALMONELLA TYPHIMURIUM, Strain/Indicator: TA1535, Metabolic Activation: NONE, Method: VAPOR CHAMBER): inactive; negative
- mutagenic call (Test System: AMES SALMONELLA TYPHIMURIUM, Strain/Indicator: TA1535, Metabolic Activation: RAT LIVER S-9, Method: VAPOR CHAMBER): inactive; negative

Structure (SMILES): C=CCc1[c-]cccc1.C=CCc1[c-]cccc1.[Pt+2].c1ccc(P(c2ccccc2)c2ccccc2)cc1
- mutagenic call (Test System: AMES SALMONELLA TYPHIMURIUM, Strain/Indicator: TA92, Metabolic Activation: NONE, Method: STANDARD PLATE): inactive; negative
- mutagenic call (Test System: AMES SALMONELLA TYPHIMURIUM, Strain/Indicator: TA98, Metabolic Activation: NONE, Method: STANDARD PLATE): active; positive
- mutagenic call (Test System: AMES SALMONELLA TYPHIMURIUM, Strain/Indicator: TA100, Metabolic Activation: NONE, Method: STANDARD PLATE): inactive; negative
- mutagenic call (Test System: AMES SALMONELLA TYPHIMURIUM, Strain/Indicator: TA2410, Metabolic Activation: NONE, Method: STANDARD PLATE): inactive; negative
